Assay results from US8846687B2, “Pyrazine compounds as PI3 kinase inhibitors” (Novartis AG, priority 2008, dated 2014).

Biological target: recombinant GST-p110γ (human PI 3-Kγ) (Homo sapiens, UniProt P48736)
Assay: PI 3-kinase gamma in vitro kinase assay (Scintillation Proximity Assay)
Method: To express the recombinant protein, Sf9 (Spodoptera frugiperda 9) insect cells are routinely maintained at densities between 3×10^5 and 3×10^6 cells/ml in serum containing TNMFH medium (Sigma). Sf9 cells, at a density of 2×10^6 are infected with human GST-PI 3-KγΔ34 baculovirus at a multiplicity of infection (m.o.i.) of 1 for 72 hours. The infected cells are harvested by centrifugation at 1400 g for 4 minutes at 4° C. and the cell pellets are frozen at −80° C. […] Sf9 cells (1×10^9) are resuspended in 100 ml cold (4° C.) lysis buffer (50 mM Tris-HCl pH 7.5, 1% Triton X-100, 150 mM NaCl, 1 mM NaF, 2 mM DTT and protease inhibitors. Cells are incubated on ice for 30 minutes then centrifuged at 15000 g for 20 minutes at 4° C. Purification of the supernatant sample is carried out at 4° C. by affinity chromatography using SEPHAROSE™ agarose gel beads coupled to glutathione (from Amersham Pharmacia Biotech). A cell lysate/GST resin ratio of 50:1 is used. The GST resin is firstly pre-rinsed to remove ethanol preservative and then equilibrated with lysis buffer. Cell lysate (supernatant) is added (usually as 50 ml lysate to 1 ml GST resin in 50 ml tubes) and gently rotated on a mixer at 4° C. for 2-3 hours. The unbound flow through sample is collected by centrifugation at 1000 g for 5 minutes at 4° C. using a DENLEY™ centrifuge. The 1 ml GST resin containing bound material is transferred to a 15 ml FALCON™ centrifuge tube for subsequent washing and elution steps. Firstly a series of 3 cycles of washings (mixing by gentle inversion) is performed with 15 ml ice cold wash Buffer A (50 mM Tris-HCl pH 7.5, 1% Triton X-100, 2 mM DTT) interspersed with centrifugation at 1000 g for 5 minutes at 4° C. A final single wash step is performed with 15 ml ice cold wash Buffer B (50 mM Tris-HCl pH 7.5, 2 mM DTT) and then centrifuged at 1000 g for 5 minutes at 4° C. The washed GST resin is finally eluted with 4 cycles of 1 ml ice cold elution buffer (50 mM Tris-HCl pH 7.5, 10 mM reduced glutathione, 2 mM DTT, 150 mM NaCl, 1 mM NaF, 50% ethylene glycol and protease inhibitors) interspersed with centrifugation at 1000 g for 5 minutes at 4° C. Samples are aliquoted and stored at −20° C.
An in vitro kinase assay was established that measures the transfer of the terminal phosphate of adenosine triphosphate to phosphatidylinositol. The kinase reaction is performed in a white 96 well microtitre plate as a Scintillation Proximity Assay. Each well contains 10 μl test compound in 5% dimethylsulfoxide and 20 μl assay mix (40 mM Tris, 200 mM NaCl, 2 mM ethyleneglycol-aminoethyl-tetraacetic acid (EGTA), 15 μg/ml phosphatidylinositol, 12.5 μM adenosine triphosphate (ATP), 25 mM MgCl2, 0.1 μCi [^33P]ATP). The reaction is started by the addition of 20 μl of enzyme mix (40 mM Tris, 200 mM NaCl, 2 mM EGTA containing recombinant GST-p110γ).

Chain of recombinant GST-p110γ (human PI 3-Kγ) (P48736 38-1102): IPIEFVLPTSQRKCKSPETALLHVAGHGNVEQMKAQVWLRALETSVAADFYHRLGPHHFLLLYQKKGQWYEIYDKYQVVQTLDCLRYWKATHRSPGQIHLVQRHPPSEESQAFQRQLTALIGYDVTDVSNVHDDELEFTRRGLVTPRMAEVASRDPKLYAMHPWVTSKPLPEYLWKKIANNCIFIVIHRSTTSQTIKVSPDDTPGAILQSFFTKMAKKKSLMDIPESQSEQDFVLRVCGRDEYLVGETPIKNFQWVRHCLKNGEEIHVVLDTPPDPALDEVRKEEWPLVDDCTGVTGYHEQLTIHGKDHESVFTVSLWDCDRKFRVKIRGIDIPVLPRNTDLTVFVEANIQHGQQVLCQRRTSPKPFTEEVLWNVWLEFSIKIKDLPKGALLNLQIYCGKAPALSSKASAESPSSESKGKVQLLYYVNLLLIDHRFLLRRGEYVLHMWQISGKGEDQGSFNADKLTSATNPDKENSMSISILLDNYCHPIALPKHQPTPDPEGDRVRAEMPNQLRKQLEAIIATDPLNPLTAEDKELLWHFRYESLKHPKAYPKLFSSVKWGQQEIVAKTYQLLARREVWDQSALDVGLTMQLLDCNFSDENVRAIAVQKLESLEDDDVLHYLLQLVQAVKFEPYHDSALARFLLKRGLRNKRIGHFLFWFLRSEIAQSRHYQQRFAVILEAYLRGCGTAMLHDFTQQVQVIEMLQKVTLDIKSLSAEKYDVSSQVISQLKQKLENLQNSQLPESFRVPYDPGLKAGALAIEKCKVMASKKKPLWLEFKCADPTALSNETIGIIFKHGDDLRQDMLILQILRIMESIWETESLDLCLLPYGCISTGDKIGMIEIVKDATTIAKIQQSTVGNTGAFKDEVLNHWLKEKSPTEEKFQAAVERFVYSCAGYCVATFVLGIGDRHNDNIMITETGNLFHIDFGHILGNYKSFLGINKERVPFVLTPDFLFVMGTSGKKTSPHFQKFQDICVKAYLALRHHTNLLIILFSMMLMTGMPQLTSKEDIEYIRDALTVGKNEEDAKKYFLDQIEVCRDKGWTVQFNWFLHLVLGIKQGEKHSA

IC50	Structure (SMILES)
33 nM	Nc1ncc(-c2cnc(N)c(C(=O)c3cccnc3)n2)cc1C(F)(F)F [Example 1, [3-Amino-6-(6-amino-5-trifluoromethyl-pyridin-3-yl)-pyrazin-2-yl]-pyridiny-3-yl-methanone]
12 nM	Nc1ncc(-c2ccc(Cl)c(S(=O)(=O)Nc3ccccc3)c2)nc1C(=O)c1cccnc1 [Example 13, 5-[5-Smino-6-(pyridine-3-carbonyl)-pyrazin-2-yl]-2-chloro-N-phenyl-benzenesulfonamide]
373 nM	Nc1ncc(-c2cncc(C(=O)N3CCOCC3)c2)nc1C(=O)c1cccnc1 [Example 28]
587 nM	Nc1ncc(-c2ccc3c(c2)OCO3)nc1C(=O)c1cccnc1 [Example 35, (3-Amino-6-benzo[1,3]dioxol-5-yl-pyrazin-2-yl)-pyridin-3-yl-methanone]
362 nM	Nc1ncc(-c2cccc(C(=O)O)c2)nc1C(=O)c1cccnc1 [Example 49, 3-[5-Amino-6-(pyridine-3-carbonyl)-pyrazin-2-yl]-benzoic acid]
393 nM	Nc1cccc(-c2cnc(N)c(C(=O)c3cccnc3)n2)c1 [Example 51, [3-Amino-6-(3-amino-phenyl)-pyrazin-2-yl]-pyridin-3-yl-methanone]
431 nM	Nc1ncc(-c2cc(C(F)(F)F)cc(S(N)(=O)=O)c2)nc1C(=O)c1cccnc1 [Example 67, 3-[5-Amino-6-(pyridine-3-carbonyl)-pyrazin-2-yl]-5-trifluoromethyl-benzenesulfonamide]
125 nM	Nc1ncc(-c2cc(S(=O)(=O)N3CCOCC3)c(F)cc2F)nc1C(=O)c1cccnc1 [Example 74, {3-Amino-6-[2,4-difluoro-5-(morpholine-4-sulfonyl)-phenyl]-pyrazin-2-yl}-pyridin-3-yl-methanone]
753 nM	Nc1ncc(-c2ccc(Cl)c(Cl)c2)nc1C(=O)c1ccc(CN2CCCCC2)cc1 [Example 86, [3-Amino-6-(3,4-dichloro-phenyl)-pyrazin-2-yl]-(4-piperidin-1-ylmethyl-phenyl)-methanone]
